From PubChem BioAssay AID463181 (University of Pittsburgh Molecular Library Screening Center, 2010) come the findings set out here.

Structures are written as SMILES. Records with an inconclusive call do not appear. Calls of active or inactive are those of the source.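 The calls were made as follows: active = compounds with IC50 under 50 µM in each of two repeat runs and on average; inconclusive = just one of the two runs above 50 µM; inactive = both runs and average above 50 µM.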

Assay [1] is described as follows: inhibitors of zVAD-triggered L929 necroptosis, potency, dose response, L929 cells, duplicate IC50 (AID 463181). To be noted: L929 zVAD necroptosis rescue, ATP luminescence, 24 h; inhibition of cell death; at 50 µM; stronger effect = higher value.
In assay [2] the test system is L929 zVAD necroptosis rescue, ATP luminescence, 24 h. Described as above.

Consider `Cc1cnc(NC(=O)c2ccc(OCC3CCCO3)cc2)s1` (stereo not drawn), for which the inhibition in assay [1] stood at 74.2%. Also, the IC50 in assay [2] is 8.49 µM.

Consider `Cn1c(N)c(C(=O)N/N=C/c2ccccc2)sc1=S`, for which the inhibition in assay [1] worked out at 76.3%. Also, the IC50 in assay [2] is 17.3 µM.

Regarding `Cc1ccc(C2CC(=O)NC(SCC(=O)Nc3nccs3)=C2C#N)cc1` (stereo not drawn), the inhibition in assay [1] was found to be 80.8%. The IC50 in assay [2] is 0.251 µM.

`O=C(/C=C/c1cccc(F)c1)Nc1nccs1`: the inhibition in assay [1] was found to be 1.43%. The IC50 in assay [2] is > 20 µM (inactive).

As for `COc1ccc(-n2cnnc2SCC(=O)Nc2cc(C(C)(C)C)nn2-c2ccccc2)cc1`, the inhibition in assay [1] came out at 70%. In addition, the IC50 in assay [2] was 4.77 µM.

In the case of `Nc1ccccc1Nc1cc(-c2ccccc2)[nH]n1`, in assay [1], the inhibition turned out to be 90.9%. Besides, the IC50 in assay [2] was 2.78 µM.

Take `OCCCNc1nccc(-c2cc(Nc3cccc(Cl)c3)ncn2)n1`: the inhibition in assay [1] worked out at 82.7%. Moreover, the half-maximal inhibitory concentration (IC50) in assay [2] is 10.7 µM.

As to `Cn1nnnc1SCc1ccc(C(=O)Nc2nccs2)cc1`, in assay [1], the inhibition was found to be 76.4%. The half-maximal inhibitory concentration (IC50) in assay [2] was 16.9 µM.

In the case of `O=C1Nc2ccccc2/C1=C/c1cnc[nH]1`, in assay [1], the inhibition was determined as 85.9%. In assay [2], the IC50 was 9.67 µM.

On to `O=C(Nc1nccs1)c1ccc(S(=O)(=O)NCc2cccs2)cc1`, for which the inhibition in assay [1] came out at 2.91%. Moreover, the IC50 in assay [2] is > 20 µM (inactive).

Take `COc1cc(NC(=O)c2cnc(N)s2)cc(C(=O)Nc2cccc(C(F)(F)F)c2)c1`: the inhibition in assay [1] stood at 75.8%. For the same molecule, the IC50 in assay [2] is 17.4 µM.

As to `Cc1ccc(/C=N\Nc2nc3ccc(Cl)cc3[nH]2)o1`, the inhibition in assay [1] is 0.613%. In addition, the IC50 in assay [2] was > 20 µM (inactive).

`COc1cc(N=Cc2c(O)[nH]c3ccccc23)cc(OC)c1OC`: the inhibition in assay [1] was 89.1%. In assay [2], the IC50 was 7.09 µM.

`Cc1cnc(NC(=O)c2cc3c(s2)CCCC3)s1`: in assay [1], the inhibition is 10.4%. For the same molecule, in assay [2], the IC50 is > 20 µM (inactive).

As for `COc1ccc(/C=N/Nc2ccccn2)cc1OC`, in assay [1], the inhibition came to 80.7%. In assay [2], the 50% inhibitory concentration (IC50) was 16.3 µM.

For `O=C(C1=NNCC1c1ccc(Cl)cc1)C1CO1` (stereo not drawn), the inhibition in assay [1] amounted to 103%. Also, in assay [2], the IC50 was 3.69 µM.

In the case of `Cc1ccc2[nH]c3c(c2c1)CCc1cn[nH]c1-3`, in assay [1], the inhibition amounted to 82.2%. In addition, in assay [2], the half-maximal inhibitory concentration (IC50) is 1.29 µM.

In the case of `Cc1[nH]c2ccccc2c1/C=N/Nc1ccccn1`, in assay [1], the inhibition amounted to 92.7%. Besides, the concentration for half-maximal inhibition (IC50) in assay [2] was 15 µM.

On to `CC(=O)Nc1ccc(Sc2ncccc2C(=O)Nc2ccc(OC(F)(F)F)cc2)cn1`, for which the inhibition in assay [1] is 5.08%. Further, the IC50 in assay [2] is > 20 µM (inactive).

In the case of `CCN1CCN(Cc2ccc(NC(=O)c3cc(NC(=O)c4cnn(-c5ccccc5)c4N)cc(OC)c3)cc2C(F)(F)F)CC1`, the inhibition in assay [1] turned out to be 80.3%. In addition, the IC50 in assay [2] is 9.96 µM.

With `C[C@@H]1C[C@@H]2O[C@H]2/C=C\C=C\C(=O)Cc2c(Cl)c(O)cc(O)c2C(=O)O1`, the inhibition in assay [1] stood at 120%. In addition, in assay [2], the IC50 was 0.372 µM.

Consider `CCN1CCN(Cc2ccc(NC(=O)c3ccc(C)c(NC(=O)c4csc(-c5ccncc5)n4)c3)cc2C(F)(F)F)CC1`, for which the inhibition in assay [1] is 90.1%. For the same molecule, the half-maximal inhibitory concentration (IC50) in assay [2] was 5.9 µM.

`CCc1cccc2c(C(=O)COC(=O)c3ccc(O)cc3)c[nH]c12`: the inhibition in assay [1] was 1.41%. Also, the IC50 in assay [2] is > 20 µM (inactive).

In the case of `Clc1ccc2[nH]c3c(c2c1)CCc1cn[nH]c1-3`, the inhibition in assay [1] worked out at 103%. In assay [2], the concentration for half-maximal inhibition (IC50) was 2.63 µM.

For the molecule `Cc1ccc2c(c1)C(C)CC(C)(C)N2C(=O)NC1CCCCC1` (stereo not drawn), the inhibition in assay [1] stood at 1.73%. In addition, the IC50 in assay [2] was > 20 µM (inactive).

On to `C[C@H]1C[C@@H](C)C(=O)[C@@H]([C@H](O)CC2CC(=O)NC(=O)C2)C1`, for which the inhibition in assay [1] is 112%. Besides, the half-inhibitory concentration (IC50) in assay [2] is 0.986 µM.

`O=C(C1=NNCC1c1ccccc1)C1CO1` (stereo not drawn): the inhibition in assay [1] was found to be 87.3%. Moreover, the half-maximal inhibitory concentration (IC50) in assay [2] was 15.8 µM.

In the case of `Nc1nnnn1/N=C/C(Br)=C/c1ccccc1`, the inhibition in assay [1] came out at 0.0265%. Moreover, the IC50 in assay [2] was > 20 µM (inactive).

`CCCc1cc(C(=O)Nc2nccs2)cs1`: in assay [1], the inhibition came to 76.6%. The IC50 in assay [2] was 9.59 µM.

For the molecule `CC(=O)Nc1ccc(/C=N/Nc2nc3ccccc3s2)cc1`, the inhibition in assay [1] was 70.2%. For the same molecule, in assay [2], the IC50 was 18.8 µM.

As for `O=C(CSc1nnnn1-c1ccc2c(c1)OCCO2)Nc1nc2c(s1)CCCC2`, the inhibition in assay [1] was 0.775%. Also, in assay [2], the IC50 is > 20 µM (inactive).

As for `COc1ccc(N=Cc2c(O)[nH]c3ccccc23)cc1OC`, the inhibition in assay [1] is 81.8%. Besides, the IC50 in assay [2] was 6.83 µM.

In the case of `Cn1nc(C(C)(C)C)cc1NC(=O)Nc1cc(Cl)cc(Cl)c1`, the inhibition in assay [1] was 2.91%. For the same molecule, the IC50 in assay [2] was > 20 µM (inactive).

Regarding `CCN1CCN(Cc2ccc(NC(=O)c3ccc(C)c(NC(=O)c4nccnc4N)c3)cc2C(F)(F)F)CC1`, the inhibition in assay [1] turned out to be 74%. Also, the IC50 in assay [2] is 1.46 µM.

`Cc1ccc(-c2nc(Nc3ccccc3)n[nH]2)cc1`: the inhibition in assay [1] is 0.11%. Moreover, in assay [2], the IC50 is > 20 µM (inactive).

Take `O=C(OCn1ncc(Br)c(Br)c1=O)c1ccc(F)cc1`: the inhibition in assay [1] was determined as 8.06%. In assay [2], the IC50 was > 20 µM (inactive).

In the case of `c1ccc2c3c([nH]c2c1)-c1[nH]ncc1CC3`, the inhibition in assay [1] worked out at 78.5%. Moreover, in assay [2], the IC50 is 0.194 µM.

In the case of `C=C1C(=O)[C@@]23[C@H](O)C[C@@H]4C(C)(C)CC[C@H](O)[C@@]4(C)[C@@H]2CC[C@@H]1[C@H]3O`, in assay [1], the inhibition was found to be 144%. Moreover, the IC50 in assay [2] was 10.1 µM.

Take `Oc1ccc(/C=N/Nc2ccc(C(F)(F)F)cn2)cc1O`: in assay [1], the inhibition turned out to be 87.6%. For the same molecule, in assay [2], the IC50 is 4.19 µM.

For the molecule `Cc1ccc(C(=O)Nc2cccc(C(F)(F)F)c2)cc1Nc1cnccn1`, in assay [1], the inhibition came out at 74.3%. Also, the IC50 in assay [2] is 10.8 µM.

With `COc1ccc(/C=N/Nc2nc3ccccc3s2)cc1O`, the inhibition in assay [1] was determined as 72.2%. Moreover, in assay [2], the IC50 was 17.3 µM.

With `Cc1noc(C)c1/C=N/Nc1ccccn1`, in assay [1], the inhibition came out at 81.6%. In assay [2], the IC50 was 16.9 µM.

With `COc1cc(/C=N/Nc2nc3ccccc3s2)ccc1OC(=O)c1ccccc1F`, the inhibition in assay [1] turned out to be 1.24%. Also, the IC50 in assay [2] is > 20 µM (inactive).

On to `COc1cc(/C=N/Nc2ccccn2)ccc1O`, for which the inhibition in assay [1] turned out to be 91.1%. The IC50 in assay [2] is 14.9 µM.

Regarding `COC(=O)c1ccn(Cc2ccccc2Cl)n1`, in assay [1], the inhibition is 81.2%. Also, the IC50 in assay [2] was 16.3 µM.

With `O=C(Nc1nccs1)c1ccc(CSc2nnnn2-c2ccccc2)cc1`, the inhibition in assay [1] is 0.93%. The IC50 in assay [2] was > 20 µM (inactive).

Consider `CN(CC1CCCO1)S(=O)(=O)c1ccc(C(=O)Nc2nccs2)cc1` (stereo not drawn), for which, in assay [1], the inhibition came out at 97.5%. Besides, the half-inhibitory concentration (IC50) in assay [2] was 7.39 µM.

As for `COc1ccc(/C=C2\N=C(SC)NC2=O)cc1`, the inhibition in assay [1] stood at 80.6%. In addition, the IC50 in assay [2] is 5.22 µM.

Regarding `CCN(CC)Cc1cc2[nH]c3c4ccc(Cl)cc4ncc3c2cc1OC`, in assay [1], the inhibition amounted to 0.811%. The IC50 in assay [2] is > 20 µM (inactive).

With `COc1cc(/C=N/Nc2ccc(C(F)(F)F)cn2)ccc1O`, the inhibition in assay [1] amounted to 82.3%. In addition, the IC50 in assay [2] was 16.7 µM.

With `O=C(CCl)Nc1cc(SCC(O)CO)cc([N+](=O)[O-])c1` (stereo not drawn), the inhibition in assay [1] was 94.4%. In assay [2], the half-maximal inhibitory concentration (IC50) is 14.4 µM.

As to `Clc1ccc(COn2ccnc2)cc1Cl`, the inhibition in assay [1] was found to be 82.6%. The half-inhibitory concentration (IC50) in assay [2] was 10.9 µM.

With `O=C(Nc1cccc(Cl)c1)N1N=CCC1c1ccccc1` (stereo not drawn), the inhibition in assay [1] came out at 81.4%. Also, the IC50 in assay [2] was 16.9 µM.

On to `Cc1cn(-c2cc(C(=O)Nc3ccc(C)c(NC(=O)C(=O)c4c[nH]c5ccccc45)c3)cc(C(F)(F)F)c2)cn1`, for which, in assay [1], the inhibition is 1.07%. The IC50 in assay [2] was > 20 µM (inactive).

`Brc1ccc(COn2ccnc2)cc1`: the inhibition in assay [1] worked out at 79.8%. Moreover, the IC50 in assay [2] is 16.8 µM.

On to `CCN(CC)CCn1c2ccccc2c2cnc(N)c(C#N)c21`, for which the inhibition in assay [1] amounted to 68.7%. Also, in assay [2], the IC50 was 17.7 µM.

In the case of `CC(=O)OC[C@]12CCC(C)=C[C@H]1O[C@@H]1[C@H](O)[C@@H](OC(C)=O)[C@@]2(C)[C@]12CO2`, the inhibition in assay [1] stood at 114%. Also, the IC50 in assay [2] is < 0.039 µM.

Turning to `O=C(CSc1nnc(NC2CCCCC2)s1)Nc1ccc2c(c1)C(=O)c1ccccc1C2=O`, the inhibition in assay [1] came to 0.754%. Also, in assay [2], the IC50 was > 20 µM (inactive).

As for `O=C1C=CC(O)(c2cc(=O)c3c(O)cc(O)cc3o2)C=C1`, the inhibition in assay [1] amounted to 78.5%. Besides, the IC50 in assay [2] is 10.1 µM.

As for `Cc1ccc(NC(=O)CSc2nnnn2-c2ccc3c(c2)OCO3)cc1C`, the inhibition in assay [1] amounted to 0.243%. Moreover, in assay [2], the IC50 is > 20 µM (inactive).

Regarding `CN(C)S(=O)(=O)c1ccc(Cl)c(NC(=O)CSc2nnnn2-c2ccc(O)cc2)c1`, the inhibition in assay [1] was determined as 78.6%. In addition, in assay [2], the 50% inhibitory concentration (IC50) is 17.7 µM.

Take `CCN1C(=O)/C(=C/c2ccc(C)s2)NC1=S`: in assay [1], the inhibition turned out to be 88.7%. Also, in assay [2], the half-inhibitory concentration (IC50) was 2.05 µM.

Turning to `Cc1cc(N/N=C/c2ccncc2)nc2ccccc12`, the inhibition in assay [1] worked out at 81.6%. In assay [2], the half-inhibitory concentration (IC50) is 18.5 µM.

Turning to `O=C(CSc1nnnn1-c1ccc(O)cc1)Nc1cccc(S(=O)(=O)N2CCCC2)c1`, the inhibition in assay [1] came to 86.9%. In addition, the 50% inhibitory concentration (IC50) in assay [2] was 5.89 µM.
